Among the test systems are HL-60(TB) leukemia; U251 CNS; HCT-116 colon; OVCAR-8 ovarian; NCI-H460 lung; SN12C renal; KM12 colon; NCI-H522 lung; PC-3 prostate; HS 578T breast.
Common to all, as to experiment: growth of human tumour cells (NCI), 48 h

The results in this text go back to PubChem BioAssay (NCI).

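The compound was tested at five concentrations on cells cultured in 96-well plates, with a 48-hour exposure period. Abbreviation: GI50, concentration required for 50% inhibition of growth. TGI: total growth inhibition.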

For the compound `Cc1ccc(S(=O)(=O)N/N=C2\C(=O)C3CC2C(Cl)C3Cl)cc1` (centres undefined), the TGI with HL-60(TB) leukemia, in the test with U251 CNS, in the test with HCT-116 colon, in the test with OVCAR-8 ovarian, in the test with NCI-H460 lung and in the test with SN12C renal was more than 100 µM in each case.

As to `O=c1c2cc(I)ccc2nc(-c2cccs2)n1Nc1ccccc1`, the TGI with HL-60(TB) leukemia, in the test on U251 CNS, with HCT-116 colon, in the test on OVCAR-8 ovarian, with KM12 colon and in the test on NCI-H460 lung was more than 100 µM throughout. Also, the TGI with NCI-H522 lung, in the test with SN12C renal and in the test with PC-3 prostate was more than 100 µM each time.

In the case of `COc1ccc2c(c1)c(Cc1c(C)n(C)c3ccc(OC)cc13)c(C)n2C`, the TGI with HL-60(TB) leukemia, in the test on U251 CNS, in the test with HCT-116 colon, with OVCAR-8 ovarian, in the test on KM12 colon and with NCI-H460 lung was more than 100 µM throughout. Further, the TGI in the test on NCI-H522 lung and with SN12C renal was more than 100 µM in each case.

As for `COc1cc(/C=C2\CCCC3=C2NC(N)=NC3c2cc(OC)c(OC)c(OC)c2)cc(OC)c1OC` (centres undefined), the GI50 in the test on HL-60(TB) leukemia was 2.6 µM; in the test with HCT-116 colon, 0.551 µM; with OVCAR-8 ovarian it was 0.298 µM; with HS 578T breast it was 0.554 µM; with SN12C renal it was 1.62 µM; in the test on PC-3 prostate, 1.93 µM. The TGI in the test on HL-60(TB) leukemia was more than 100 µM; in the test on HCT-116 colon, 1.97 µM; in the test on OVCAR-8 ovarian, 12.1 µM; with HS 578T breast, 7.62 µM; in the test with SN12C renal, more than 100 µM; in the test on PC-3 prostate, more than 100 µM.

`CC(=O)Nc1ccc(-c2nnc(SCC(=O)Nc3ccccc3Cl)o2)cc1`: the TGI in the test on HL-60(TB) leukemia, in the test on U251 CNS, with HCT-116 colon, with OVCAR-8 ovarian, in the test with KM12 colon and in the test on NCI-H460 lung was more than 100 µM throughout. Besides, the TGI in the test with NCI-H522 lung and in the test with SN12C renal was more than 100 µM each time.

As for `CSC1=N/C(=C\c2cccs2)C(=O)N1CN1CCCCC1`, the TGI in the test on U251 CNS, in the test with HCT-116 colon, in the test on OVCAR-8 ovarian, with KM12 colon, in the test on HS 578T breast and in the test on SN12C renal was more than 100 µM throughout. The TGI in the test with PC-3 prostate was more than 100 µM.

Turning to `NN/C(=N\S(=O)(=O)c1cc(Cl)c(Oc2ccc([N+](=O)[O-])cc2Cl)c(Cl)c1)Nc1ccc(Cl)cc1`, the TGI with U251 CNS is 30.8 µM; in the test with HCT-116 colon it was 29.1 µM; in the test with OVCAR-8 ovarian, 60.4 µM; in the test with KM12 colon, 42.1 µM; in the test with NCI-H460 lung, 31.9 µM; in the test with SN12C renal, 33.2 µM. The same compound had a TGI with PC-3 prostate of 81.6 µM.

As for `c1ccc(C2=NN(c3ccccc3)C3(S2)SC(c2ccccc2)(c2ccccc2)c2ccccc23)cc1` (centres undefined), the TGI with HL-60(TB) leukemia, in the test on U251 CNS, with HCT-116 colon, with OVCAR-8 ovarian, with KM12 colon and in the test on NCI-H460 lung was more than 100 µM throughout. In addition, the TGI in the test with NCI-H522 lung and with SN12C renal was more than 100 µM throughout.

On to `Clc1cc(Cl)cc(N2N=C(c3cccc(Nc4ccncc4)c3)CC2c2ccccc2)c1` (centres undefined), for which the GI50 in the test on HL-60(TB) leukemia is 1.9 µM; in the test with OVCAR-8 ovarian, 2.07 µM; with KM12 colon, 1.86 µM; with NCI-H460 lung, 1.8 µM; in the test with NCI-H522 lung, 1.79 µM; with SN12C renal, 1.66 µM. For the same compound, the GI50 in the test with PC-3 prostate was 1.87 µM. Also, the TGI with HL-60(TB) leukemia worked out at 5.2 µM; in the test on OVCAR-8 ovarian it was 4.56 µM; with KM12 colon it was 3.7 µM; in the test with NCI-H460 lung, 3.37 µM; in the test on NCI-H522 lung, 3.6 µM; in the test with SN12C renal, 3.12 µM. The TGI with PC-3 prostate amounted to 5.15 µM.

Take `CCOc1ccc(NCC(=O)N2CC(=O)Nc3ccccc32)cc1`: the TGI in the test with HL-60(TB) leukemia, in the test on U251 CNS, in the test with HCT-116 colon, in the test on OVCAR-8 ovarian, in the test with KM12 colon and in the test on NCI-H460 lung was more than 100 µM each time. Further, the TGI in the test with NCI-H522 lung and in the test with SN12C renal was more than 100 µM throughout.

Consider `CC1CN=C(NCc2ccccc2)S1` (centres undefined), for which the TGI with HL-60(TB) leukemia, in the test on U251 CNS, in the test with HCT-116 colon, in the test with KM12 colon, with NCI-H460 lung and in the test with HS 578T breast was more than 100 µM throughout. The TGI with NCI-H522 lung and in the test on SN12C renal was more than 100 µM throughout.

For the compound `COc1ccc(CCN2CCC(C#N)(c3ccc(OC)c(OC)c3)CC2)cc1OC`, the TGI with HL-60(TB) leukemia, with U251 CNS, in the test on HCT-116 colon, in the test on OVCAR-8 ovarian, with KM12 colon and in the test on NCI-H460 lung was more than 100 µM in each case. Further, the TGI in the test with NCI-H522 lung and in the test on SN12C renal was more than 100 µM throughout.

Take `Oc1cn(-c2ccc(Cl)cc2)nc1-c1nnc(Nc2ccccc2)o1`: the TGI in the test with U251 CNS is 34.1 µM; in the test with HCT-116 colon, 29.6 µM; in the test on OVCAR-8 ovarian, 43.6 µM; in the test on KM12 colon it was 37.2 µM; in the test on NCI-H460 lung it was 39.6 µM; in the test on HS 578T breast, 51.2 µM. The TGI came to 35.4 µM in the test on NCI-H522 lung and 32.2 µM with SN12C renal.

With `Cc1nc2ccccc2nc1NS(=O)(=O)c1ccc(N)cc1`, the TGI with HL-60(TB) leukemia, in the test with U251 CNS, in the test with OVCAR-8 ovarian, with KM12 colon, in the test on NCI-H522 lung and in the test with SN12C renal was more than 100 µM in each case.

Turning to `O=C1/C(=C/c2cccc([N+](=O)[O-])c2)COc2ccccc21`, the TGI in the test on HL-60(TB) leukemia is 5.59 µM; in the test on U251 CNS, 6.83 µM; in the test with HCT-116 colon it was 3.16 µM; in the test on OVCAR-8 ovarian, 9.19 µM; in the test with KM12 colon, 6.29 µM; with NCI-H460 lung, more than 25.2 µM. Moreover, the TGI with NCI-H522 lung is 3.1 µM.
